Key:
Acetylcholinesterase [1] = molecular target: T1, Acetylcholinesterase (Homo sapiens, UniProt P22303); assay: Inhibition of human erythrocytes AChE using acetylthiocholine iodide as substrate preincubated for 5 mins followed by substrate addition measured every min for 10 mins by Ellman's method
[2] = Apparent permeability from apical to basolateral side in human Caco2 cells at 10 uM at pH 7.4 measured after 60 mins by HPLC-MS/MS method; type: ADME, cell-based; details: Caco-2, pH 7.4
[3] = Apparent permeability from apical to basolateral side in human Caco2 cells assessed as drug recovery at 10 uM at pH 7.4 measured after 60 mins by HPLC-MS/MS method; type: ADME, cell-based; details: Caco-2, pH 7.4, read-out: Drug recovery
[4] = molecular target: Amyloid-beta precursor protein (Homo sapiens) (UniProt P05067); assay: Inhibition of self-induced aggregation of amyloid beta (1 to 42 residues) (unknown origin) at 10 uM measured every 5 mins by Thioflavin T dye based fluorescence assay relative to control
Acetylcholinesterase [5] = molecular target: T1, Acetylcholinesterase; assay: Displacement of propidium iodide from PAS of human AChE after 6 hrs by fluorescence assay
Acetylcholinesterase [6] = molecular target: T2, Acetylcholinesterase (Bos taurus, UniProt P23795); assay: Inhibition of bovine erythrocytes AChE using acetylthiocholine iodide as substrate by Ellman's method
T2 sequence (P23795 whole entry): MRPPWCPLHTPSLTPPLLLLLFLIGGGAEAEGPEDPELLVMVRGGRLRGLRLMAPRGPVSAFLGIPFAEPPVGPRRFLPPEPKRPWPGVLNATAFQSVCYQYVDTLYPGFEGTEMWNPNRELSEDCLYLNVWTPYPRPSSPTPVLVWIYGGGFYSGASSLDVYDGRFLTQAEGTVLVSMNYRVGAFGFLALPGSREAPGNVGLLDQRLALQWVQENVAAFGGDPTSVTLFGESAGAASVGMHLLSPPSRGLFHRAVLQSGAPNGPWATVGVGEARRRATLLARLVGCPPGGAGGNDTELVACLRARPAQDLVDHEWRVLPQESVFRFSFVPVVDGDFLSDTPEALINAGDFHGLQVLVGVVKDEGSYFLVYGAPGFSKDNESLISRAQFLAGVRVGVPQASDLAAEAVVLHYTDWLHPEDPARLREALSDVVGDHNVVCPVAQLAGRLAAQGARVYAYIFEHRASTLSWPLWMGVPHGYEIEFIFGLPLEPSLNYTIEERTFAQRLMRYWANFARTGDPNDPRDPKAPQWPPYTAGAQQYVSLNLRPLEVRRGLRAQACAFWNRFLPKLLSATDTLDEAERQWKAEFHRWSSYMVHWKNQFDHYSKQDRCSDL

Acetylcholinesterase [7] = molecular target: T1, Acetylcholinesterase; assay: Inhibition of human erythrocytes AChE at 10^-5 M using acetylthiocholine iodide as substrate preincubated for 5 mins followed by substrate addition measured every min for 10 mins by Ellman's method

T1 sequence (P22303 whole entry): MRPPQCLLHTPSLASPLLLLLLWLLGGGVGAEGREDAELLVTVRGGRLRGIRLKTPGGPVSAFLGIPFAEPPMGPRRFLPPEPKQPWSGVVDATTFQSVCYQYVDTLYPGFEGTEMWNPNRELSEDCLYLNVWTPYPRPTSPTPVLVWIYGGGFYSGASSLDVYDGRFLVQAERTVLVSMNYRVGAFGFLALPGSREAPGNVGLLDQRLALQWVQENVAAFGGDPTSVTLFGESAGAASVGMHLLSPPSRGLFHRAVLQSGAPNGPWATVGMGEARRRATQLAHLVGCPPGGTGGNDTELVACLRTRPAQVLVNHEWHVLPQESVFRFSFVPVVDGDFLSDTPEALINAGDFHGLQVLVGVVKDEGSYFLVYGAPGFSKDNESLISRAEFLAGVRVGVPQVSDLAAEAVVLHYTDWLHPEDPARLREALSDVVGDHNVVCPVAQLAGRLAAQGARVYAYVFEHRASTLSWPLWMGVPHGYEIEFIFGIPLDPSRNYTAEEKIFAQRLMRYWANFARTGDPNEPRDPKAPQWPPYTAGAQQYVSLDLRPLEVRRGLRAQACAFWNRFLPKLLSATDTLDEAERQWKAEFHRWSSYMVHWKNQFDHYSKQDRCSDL
Sequence of Amyloid-beta precursor protein (Homo sapiens) (P05067 whole entry, the tested form may be a part): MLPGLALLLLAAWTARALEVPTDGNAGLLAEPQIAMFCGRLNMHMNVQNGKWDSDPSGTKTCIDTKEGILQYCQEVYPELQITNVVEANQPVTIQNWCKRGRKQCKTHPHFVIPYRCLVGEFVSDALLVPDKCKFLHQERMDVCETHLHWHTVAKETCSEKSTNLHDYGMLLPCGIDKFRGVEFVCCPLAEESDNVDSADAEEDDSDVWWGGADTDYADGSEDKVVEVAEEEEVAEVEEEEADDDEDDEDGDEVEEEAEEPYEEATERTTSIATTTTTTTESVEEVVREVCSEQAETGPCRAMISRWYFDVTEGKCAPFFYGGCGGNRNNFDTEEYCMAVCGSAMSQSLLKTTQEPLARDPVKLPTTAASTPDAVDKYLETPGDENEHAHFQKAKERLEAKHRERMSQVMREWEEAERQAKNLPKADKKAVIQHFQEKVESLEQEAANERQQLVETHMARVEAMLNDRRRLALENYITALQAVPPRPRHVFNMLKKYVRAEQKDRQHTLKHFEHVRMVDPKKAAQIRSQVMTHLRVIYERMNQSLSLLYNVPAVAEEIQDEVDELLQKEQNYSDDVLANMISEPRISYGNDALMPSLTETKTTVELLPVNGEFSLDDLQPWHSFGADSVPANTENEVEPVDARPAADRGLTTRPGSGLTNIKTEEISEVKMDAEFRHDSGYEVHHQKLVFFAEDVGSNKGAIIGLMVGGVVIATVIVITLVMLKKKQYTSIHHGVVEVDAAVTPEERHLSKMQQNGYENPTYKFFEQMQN

SMILES	IC50 (Acetylcholinesterase [1]) [µM]	also measured
CC(C)NC(=O)c1cc2c(OC(=O)N3CCCC3)cccc2[n+](C)c1	> 10	
Cc1c(C(=O)N(C)C)cc2c(OC(=O)N(C)C)cccc2[n+]1C	> 10	
CN(C)C(=O)Oc1cccc2c1cc(C(=O)NC1CCCCC1)c[n+]2C	0.02	
CN(C)C(=O)Oc1cccc2c1CC(C(=O)NCCOCCOCCN1C(=O)c3ccccc3C1=O)=CN2C	> 10	Papp A→B at 1 h, 10 µM [2]: 11.1 ×10⁻⁶ cm/s; recovery at 1 h, 10 µM [3]: 91%
COC(=O)CNC(=O)c1cc2c(OC(=O)N(C)C)cccc2[n+](C)c1	0.093	
CN(C)C(=O)Oc1cccc2c1cc(C(=O)NCCOCCOCCN1C(=O)c3ccccc3C1=O)c[n+]2C	0.006	inhibition [4]: 14%; Activity (Acetylcholinesterase [5]): 20%; IC50 (Acetylcholinesterase [6]): 0.006 µM
CN(C)C(=O)Oc1cccc2c1cc(C(=O)Nc1ccccc1)c[n+]2C	0.03	
C[n+]1cc(C(=O)NCCOCCOCCN2C(=O)c3ccccc3C2=O)cc2c(O)cccc21	> 10	inhibition (Acetylcholinesterase [7]): 35%
CC[n+]1cc(C(=O)NC)cc2c(OC(=O)N(C)C)cccc21	0.314	
CN(C)C(=O)Oc1cccc2c1cc(C(=O)NCCOCCO)c[n+]2C	0.037	
CCN(C)C(=O)Oc1cccc2c1cc(C(=O)NC(C)C)c[n+]2C	> 10	
CC(C)NC(=O)c1cc2c(OC(=O)N(C)C)cccc2[n+](C)c1	0.058	
Cc1c(C(=O)N(C)C)c(C)[n+](C)c2cccc(OC(=O)N(C)C)c12	> 10	
CNC(=O)c1cc2c(OC(=O)N(C)C)cccc2[n+](C)c1	0.077	
CNC(=O)c1cc2c(OC(=O)N(C)C)cccc2[n+](Cc2ccccc2)c1	1.16	
CN(C)C(=O)Oc1cccc2c1cc(C(=O)N(C)C)c[n+]2C	0.154	
COCCNC(=O)c1cc2c(OC(=O)N(C)C)cccc2[n+](C)c1	0.02	
Cc1c(C(=O)N(C)C)c[n+](C)c2cccc(OC(=O)N(C)C)c12	> 10	
